Data taken from patent US20090318534A1, “METHODS AND COMPOSITIONS FOR THE TREATMENT OF SKIN DISEASES AND DISORDERS” (THE REGENTS OF THE UNIVERSITY OF CALIFORNIA, priority 2006, published 2009).
“Also recorded” adds a separate entry of the source. Values belong to the molecule of their own block, whether it stands above or below them.

Key:
[1] = system: Normal human keratinocytes; assay: Measurement of IL-8 release; type: cell-based; conditions: peptides 3.2 μM, 6 h, ELISA; FIG. 4a
Experimental: Measurement of IL-8 release. Normal human keratinocytes (Cascade Biologics) were grown in EpiLife medium (Cascade Biologics) supplemented with 0.06 mM Ca2, 1% EpiLife defined growth supplement, and 1% penicillin/streptomycin (Invitrogen Life Technologies). Cells were grown at 37° C. in a humidified atmosphere of 5% CO2 and 95% air. Human keratinocytes were cultured to confluence and treated with the cathelicidin peptides (3.2 μM) for 6 h. Supernatants were collected and placed in a sterile 96-well plate for ELISA. IL-8 production was determined by ELISA (R&D systems) according to the manufacturer's instructions.

mouse skin [2] = assay: Mouse skin inflammation model, subcutaneous injection of cathelicidin peptides; type: in vivo, Balb/C and C57/B16 mice; conditions: for skin inflammation (erythema, vascular dilatation) / histology of injected skin: 320 μM in 40 μl; for skin inflammation (erythema, vascular dilatation): injected twice a day for 2 d, assessed after 48 hr; for histology of injected skin: biopsy after 48 hr
Experimental: Mouse skin inflammation models. All animal procedures were approved by the Veterans Affairs (VA) San Diego Healthcare System subcommittee on animal studies. Balb/C and C57/B16 mice shaved 24 h prior to treatments and injected subcutaneously on the back with 40 μl of peptide (320 μM) twice a day. Forty-eight h after initial injection (total 4 injections), skin inflammation was assessed by the severity of erythema and edema, then biopsied for histology.
Mouse skin inflammation models. Balb/C or […] mice shaved 24 h prior to treatments were injected subcutaneously on the back with 40 μl of peptide at different concentrations (320, 32, 3.2, 0.32 μM, and PBS as 0 μM) twice a day. Forty-eight h after initial injection (total 4 injection), skin inflammation was assessed by the severity of erythema and edema. Skin was then biopsied for hematoxlin eosin staining to examine the histopathological changes. Frozen sections were also prepared and processed for immunostaining that included rat monoclonal anti-mouse Ly-6G (BD Biosciences, San Jose, Calif.) or rat monoclonal anti-mouse CD31 (BD Biosciences). Goat anti-rat IgG conjugated to FITC (Abcam Inc., Cambridge, Mass.) was used as the secondary antibody. Nuclei were stained with DAPI and sections were mounted in ProLong Anti-Fade reagent (Molecular Probes). Images were obtained using an Olympus BX41 microscope (Scientific Instrument Company, Temecula, Calif.).

mouse skin [3] = assay: Subcutaneous injection of SCTE in mice, skin inflammation and cathelicidin processing; type: in vivo
Experimental: Skin from Spink5^−/− mice had altered expression of cathelicidin peptides similar to that seen in rosacea (FIG. 4i). The main peak was GLL-34 (m/z 3,877; FIG. 4i, arrowhead), a mouse cathelicidin peptide similar in activity to human LL-37. Like LL-37, GLL-34 was not detected in wild-type mouse littermates with normal serine protease activity. […] To determine whether an increase in SCTE results in greater inflammation, SCTE was injected subcutaneously in a manner similar to that used for the cathelicidin peptides themselves. The amount of SCTE in human skin is as high as 2-13 ng per mg of dry weight of skin. From the data of the protease assay, the amount of serine protease activity in lesional skin of individuals with rosacea was estimated to be as high as 500 ng of tryptic kallikrein per mg of dry weight of skin. Therefore, […] of SCTE was injected twice a day for 2 d to mimic local concentrations seen in rosacea. […] Therefore, the increase in SCTE observed in rosacea would account for the pathological changes observed this disease.

[4] = target: T1, kallikrein stratum corneum tryptic enzyme (SCTE) (Homo sapiens, UniProt Q9Y337); assay: Inhibition of SCTE in vitro; type: biochemical
T1 sequence (Q9Y337 23-293): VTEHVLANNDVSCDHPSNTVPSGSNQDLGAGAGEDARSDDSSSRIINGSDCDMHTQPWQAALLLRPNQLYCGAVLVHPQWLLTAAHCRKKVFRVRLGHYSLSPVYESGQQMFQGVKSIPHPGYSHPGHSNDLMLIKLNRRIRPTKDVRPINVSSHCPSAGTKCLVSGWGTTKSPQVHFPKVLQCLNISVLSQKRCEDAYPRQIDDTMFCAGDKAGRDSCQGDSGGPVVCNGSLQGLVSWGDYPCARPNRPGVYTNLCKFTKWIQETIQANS
Text: In one aspect of the disclosure, a method of treatment of inflammatory diseases and disorders, rosacea and or acnes comprises inhibiting cathelicidin expression or activity. Examples of compositions and methods for inhibiting the expression of cathelicidins include antisense, ribozyme and gene therapy techniques. For example, rosacea can be inhibited or treated using antisense or ribozyme therapies that reduce the expression of cathelicidin. In one aspect, a vitamin D inhibitor, or vitamin D receptor antagonist can be used to reduce expression of a cathelicidin. Examples of compositions and methods for inhibiting cathelicidin activity include antibodies and small molecule agents. In one aspect, the treatment is at the site of inflammation through topical inhibition of Vitamin D activity, inhibiting of a Vitamin D receptor activity, or an inhibitor of a protease that cleaves full length cathelicidin into its active fragments is provided. For example, a method of the disclosure comprises inhibiting the kallikrein stratum corneum tryptic enzyme (SCTE), an enzyme that cleaves the cathelicidin precursor protein.

[5] = system: protease activity in rosacea skin; assay: Skin protease activity (BODIPY FL casein substrate) of rosacea skin extracts with protease inhibitors; type: biochemical, human; conditions: tape-stripped rosacea facial skin extracts, FITC/BODIPY FL casein, 37° C. 24 h; 20 μg/ml aprotinin, 200 μM AEBSF; FIG. 3k
Experimental: Skin protease activity. To obtain skin surface protease, facial skin was tape-stripped 20 times then immersed in 1 ml 1 M acetic acid and incubated 4° C. overnight, extracts were lyophilized and the pellet dissolved in 40 μl of 1×PBS, pH 7.4. Protease activity was monitored with EnzCheck® Protease Assay Kit green fluorescence (Molecular Probes, Inc., Eugene, Oreg.) according to manufacturer's instructions. Briefly, 10 μl of the aqueous solution collected from the skin surface was mixed with 190 μl of BODIPY FL casein substrate in 10 mM Tris-HCl, pH 7.8, and incubated at 37° C. for 24 h. Protease activity was monitored as increased fluorescence with SpectraMax GEMINI EM (Molecular Devices Corporation, Sunnyvale, Calif.). In some experiments protease inhibitors were added including mixed protease inhibitors (Complete EDTA-free, 1 tablet/50 ml; Roche, Indianapolis, Ind.), 200 μg/ml bestatin, 20 μg/ml E-64, and 20 μg/ml aprotinin (Sigma-Aldrich, St. Louis, Mo.), 200 μM 4-(2-aminoethyl)-benzenesulfonylfluoride (AEBSF), 200 μM human neutrophil elastase inhibitor (methoxysuccinyl-Ala-Ala-Pro-Ala-chloromethyl ketone), 200 μM human leukocyte elastase inhibitor (methoxysuccinyl-Ala-Ala-Pro-Val-chloromethylketone, Calbiochem, San Diego, Calif.).

mouse cathelicidin = target: T2, mouse cathelicidin (UniProt P51437)
T2 sequence: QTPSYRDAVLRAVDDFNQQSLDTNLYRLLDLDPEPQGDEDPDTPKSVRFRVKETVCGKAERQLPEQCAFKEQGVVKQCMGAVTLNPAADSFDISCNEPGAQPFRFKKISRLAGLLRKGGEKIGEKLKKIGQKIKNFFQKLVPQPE

Molecule: FA-29: synthetic cathelicidin peptide FALLGDFFRKSKEKIGKEFKRIVQRIKDF (SEQ ID NO:10) (Partial Peptide Sequence from TOF-MS)
secretion of IL-8 from cultured human keratinocytes [1]: induced secretion of IL-8 | skin inflammation (erythema, vascular dilatation) (mouse skin [2]): induced erythema and vascular dilatation | histology of injected skin (mouse skin [2]; twice a day for 2 d): neutrophilic infiltrate, thrombosis and hemorrhage

Molecule: LL-37: synthetic cathelicidin peptide LLGDFFRKSKEKIGKEFKRIVQRIKDFLRNLVPRTES (SEQ ID NO:14) (Partial Peptide Sequence from TOF-MS)
secretion of IL-8 from cultured human keratinocytes [1]: induced secretion of IL-8 | skin inflammation (erythema, vascular dilatation) (mouse skin [2]): induced erythema and vascular dilatation | histology of injected skin (mouse skin [2]; twice a day for 2 d): neutrophilic infiltrate, thrombosis and hemorrhage | lowest concentration with dose-dependent inflammatory reaction (mouse skin [2]; 320-0.32 μM, 40 μl, twice a day for 2 d, FIG. 7d, Balb/C and C57/B16): 3.2 µM

Molecule: SCTE: kallikrein SCTE (stratum corneum tryptic enzyme, KLK5), serine protease that cleaves cathelicidin precursor
cell infiltration after SCTE injection in Camp−/− mice compared with wild type mice (mouse skin [3]; Camp−/− versus wild type, infiltrated cells per HPF, n=4, P<0.05): considerably less cell infiltration; also recorded: significantly less cell infiltration | skin inflammation and cathelicidin processing after SCTE injection (mouse skin [3]; active SCTE injected subcutaneously twice a day for 2 d, versus control (boiled SCTE)): induced erythema and inflammatory cell infiltration accompanied by processing of cathelicidin peptide; also recorded: showed inflammation and processed cathelicidin peptide

Molecule: NCCc1ccc(S(=O)(=O)F)cc1 [AEBSF, 4-(2-aminoethyl)-benzenesulfonylfluoride]
inhibition of SCTE in vitro [4]: can inhibit this enzyme in vitro | protease activity in rosacea skin [5]: completely suppressed protease activity; also recorded: effective in eliminating activity

Molecule: KR-20: synthetic cathelicidin peptide KRIVQRIKDFLRNLVPRTES (SEQ ID NO:15)
secretion of IL-8 from cultured human keratinocytes [1]: did not induce cytokine release | skin inflammation (erythema, vascular dilatation) (mouse skin [2]): did not induce inflammation

Molecule: DI-27: synthetic cathelicidin peptide DISCDKDNKRFALLGDFFRKSKEKIGK (SEQ ID NO:7) (Partial Peptide Sequence from TOF-MS)
secretion of IL-8 from cultured human keratinocytes [1]: did not

inhibition of SCTE in vitro [4]: can inhibit this enzyme in vitro
Molecule: aprotinin
protease activity in rosacea skin [5]: completely suppressed protease activity; also recorded: effective in eliminating activity

Molecule: stratum corneum tryptic enzyme (SCTE)
cathelicidin processing in mouse skin after subcutaneous SCTE injection (SELDI-TOF-MS) (mouse cathelicidin): SCTE-treated skin showed inflammation and processed cathelicidin peptide (m/z 4,244, sequence FKKISRLAGLLRKGGEKIGEKLKKIGQKIKNFFQKLV (SEQ ID NO:3))
